Patent publication US8598145B2, “Mitochondrially delivered anti-cancer compounds” (priority 2008, dated 2013)

Columns and labels:
H9c2 = test: MTT viability assay (IC50); type: cell-based, rat; conditions: H9c2, ~60% confluency
Text: (§1) The following cell lines used in this study were obtained from ATCC, unless specified otherwise: Human T lymphoma cells Jurkat, human mesothelioma cells Meso-I, MM-BI, Ist-Mes, Ist-Mes-2 (Pass, H. I. et al. Characteristics of nine newly derived mesothelioma cell lines. Ann. Thorac. Surg. 59, 835-844 (1995)), human breast cancer cells MCF-7 (erbB2-low) and MDA-MB-453 (erbB2-high), human colorectal cells HCT-116, human hepatocarcinoma cells Huh-7, mouse mesothelioma cells AE17 (Jackaman, C. et al. IL-2 intratumoral immunotherapy enhances CD8+ T cells that mediate destruction of tumor cells and tumor-associated vasculature: a novel mechanism for IL-2. J. Immunol. 171, […] (2003), human non-malignant mesothelial cells Met-5A, […] (Claycomb, W. C. et al. HL-1 cells: a cardiac muscle cell line that contracts and retains phenotypic characteristics of the adult cardiomyocyte. Proc. Natl. Acad. Sci. USA 95, 2979-2984 […]) and H9c2, and the human endothelial-like cells EAhy926 (Edgell, C. J., McDonald, C. C. & Graham, J. B. Permanent cell line expressing human factor VIII-related antigen established by hybridization. Proc. Natl. Acad. Sci. USA 80, 3734-3737 (1983)). Jurkat cells were grown in the RPMI medium while DMEM was used for other malignant cell lines and for Met-5A cells, supplemented with 10% FCS and antibiotics. HL-1 cells, maintained in fibronectin/gelatine-coated dishes, were grown in the Claycomb medium supplemented with noradrenalin (Claycomb, W. C. et al. HL-1 cells: a cardiac muscle cell line that contracts and retains phenotypic characteristics of the adult cardiomyocyte. Proc. Natl. Acad. Sci. USA 95, 2979-2984 […]), EAhy926 cells were grown in complete DMEM supplemented with HAT (Edgell, C. J., McDonald, C. C. & Graham, J. B. Permanent cell line expressing human factor VIII-related antigen established by hybridization. Proc. Natl. Acad. Sci. USA 80, 3734-3737 (1983)). Cells deficient in mtDNA (ρ^0 phenotype) were prepared as detailed in Weber, T. et al., (Mitochondria play a central role in apoptosis induced by α-tocopheryl succinate, an agent with anticancer activity. Comparison with receptor-mediated pro-apoptotic signaling. Biochemistry 42, 4277-4291 (2003)). Acquisition of the ρ^0 phenotype was confirmed by lack of expression by the cells of the mtDNA-encoded cytochrome c oxidase subunit II (COXII not shown). Chinese hamster lung fibroblasts deficient in complex I (B10 cells) (See, B. B. et al. Molecular remedy of complex I defects: rotenone-insensitive internal NADH-quinone oxidoreductase of Saccharomyces cerevisiae mitochondria restores the NADH oxidase activity of complex I-deficient mammalian cells. Proc. Natl. Acad. Sci. USA 95, 9167-9171 (1998)) and complex II (CybL^−/−; B9 cells) (Oostveen, F. G., Au, H. C., Meijer, P. J. & Scheffler, I. E. A Chinese hamster mutant cell line with a defect in the integral membrane protein CII-3 of complex II of the mitochondrial electron transport chain. J. Biol. Chem. 270: 26104-26108 (1995)) as well as the parental cells (B1 cells) (Oostveen, F. G., Au, H. C., Meijer, P. J. & Scheffler, I. E. A Chinese hamster mutant cell line with a defect in the integral membrane protein CII-3 of complex II of the mitochondrial electron transport chain. J. Biol. Chem. 270: 26104-26108 (1995)) were grown in DMEM with 10% FCS, antibiotics, 10 mg/ml glucose and non-essential aminoacids.
(§2) Toxicity of α-TOS, VE11S (“VES”), MitoVE3S, MitoVE5S, MitoVE7S, MitoVE9S, MitoVE11S (“MitoVES”), MitoVE11AE (“MitoVEAE”), MitoVE11F (“MitoVEF”), MitoVE11M (“MitoVEM”), and VES4TPP towards cancer cells was assessed on the basis of IC50, as detailed in Turanek, J., et al. ((2008). Liposomal formulation of vitamin E analogs as an efficient and selective anti-cancer treatment. Clin. Cancer Res. (submitted)). […]

HL-1 = test: MTT viability assay (IC50); type: cell-based, rat; conditions: HL-1, ~60% confluency
Text: as §1, §2

EAhy926 cells = test: Apoptosis in proliferating and arrested endothelial cells (FIG. 6); type: cell-based, human; conditions: EAhy926 at ~50% or 100% confluency
Method: Parental EAhy926 cells were seeded in 24-well plate so that they would acquire after an overnight recuperation ˜50% or 100% confluency, while their ρ^0 counterparts were seeded at 50% confluency. The proliferating and confluent cells were then exposed to MitoVES at concentrations and for times shown, and assessed for apoptosis level by the Annexin V-binding method (A) and for ROS accumulation using the fluorescent probe DHE (B).
as §2

[1] = system: Bax/Bak double knockout Jurkat cell line; test: Apoptosis assay of FIG. 3B; type: cell-based, human; conditions: α-TOS 50 μM, MitoVES 5 μM
Method: 3B—Parental, Bax^−/− and […] Jurkat cells were exposed to α-TOS (T) at 50 μM and MitoVES (M) 5 μM, and apoptosis assessed.
Toxicity of α-TOS, VE11S (“VES”), MitoVE3S, MitoVE5S, MitoVE7S, MitoVE9S, MitoVE11S (“MitoVES”), MitoVE11AE (“MitoVEAE”), MitoVE11F (“MitoVEF”), MitoVE11M (“MitoVEM”), and VES4TPP towards cancer cells was assessed on the basis of IC50, as detailed in Turanek, J., et al. ((2008). Liposomal formulation of vitamin E analogs as an efficient and selective anti-cancer treatment. Clin. Cancer Res. (submitted)). Apoptosis was assessed using the Annexin V method (Weber, T. et al. Mitochondria play a central role in apoptosis induced by α-tocopheryl succinate, an agent with anticancer activity. Comparison with receptor-mediated pro-apoptotic signaling. Biochemistry 42, 4277-4291 (2003)) and dissipation of the mitochondrial inner transmembrane potential was estimated using the polychromatic probe JC-1 (Molecular Probes) (Weber, T. et al. Mitochondria play a central role in apoptosis induced by α-tocopheryl succinate, an agent with anticancer activity. Comparison with receptor-mediated pro-apoptotic signaling. Biochemistry 42, 4277-4291 (2003)).

breast carcinomas = test: Spontaneous ductal breast carcinomas in transgenic mice (FIG. 9); type: in vivo, FVB/N c-neu mice
Method: The transgenic FVB/N c-neu female mice with spontaneous small breast carcinomas were treated with MitoVES at 3 μmol per mouse per dose and the tumour volume was assessed by repeated ultrasound imaging, monitoring tumour growth over several weeks.
For this purpose, the transgenic FVB/N c-neu mice that form spontaneous ductal breast carcinomas due to high level of expression of the oncogene, HER2 were used as a cancer model.

AE-17 = test: MTT viability assay (IC50); type: cell-based, mouse; conditions: AE-17, ~60% confluency
Text: The following cell lines used in this study were obtained from ATCC, unless specified otherwise: Human T lymphoma cells Jurkat, human mesothelioma cells Meso-I, MM-BI, Ist-Mes, Ist-Mes-2 (Pass, H. I. et al. Characteristics of nine newly derived mesothelioma cell lines. Ann. Thorac. Surg. 59, 835-844 (1995)), human breast cancer cells MCF-7 (erbB2-low) and MDA-MB-453 (erbB2-high), human colorectal cells HCT-116, human hepatocarcinoma cells Huh-7, mouse mesothelioma cells AE17 (Jackaman, C. et al. IL-2 intratumoral immunotherapy enhances CD8+ T cells that mediate destruction of tumor cells and tumor-associated vasculature: a novel mechanism for IL-2. J. Immunol. […]
as §2

SMILES	IC50 (H9c2)	IC50 (HL-1)	apoptosis in proliferating versus arrested endothelial cells (EAhy926 cells)	apoptosis in Bax/Bak double deficient Jurkat cells [1]	progression of breast cancer tumours (breast carcinomas; 3 μmol per mouse per dose, tumour volume by ultrasound imaging)	toxicity in treated animals (breast carcinomas; FVB/N c-neu mice)	fold lower concentrations than needed for corresponding activity of α-TOS (breast carcinomas; relative to α-TOS)	IC50 (AE-17)
Cc1c(C)c2c(c(C)c1OC(=O)CCC(=O)[O-])CCC(C)(CCCCCCCCCCC[P+](c1ccccc1)(c1ccccc1)c1ccccc1)O2 (stereo not drawn) [MitoVE11S]	54 ± 8 µM	48 ± 6 µM	causes apoptosis in proliferating but not arrested endothelial cells	extremely resistant	completely blocked progression	no obvious sign of toxicity	~10 fold	3.1 ± 0.7 µM
Cc1c(C)c2c(c(C)c1OC(=O)CCC(=O)O)CC[C@@](C)(CCC[C@H](C)CCC[C@H](C)CCCC(C)C)O2 [α-TOS, α-tocopheryl succinate, reference compound]	> 100 µM	> 100 µM		still mediates some level of killing				33 ± 5 µM
